Counter-ions that a name gives are not always drawn.
Tests used:
Assay type in all cases: biochemical
[1] = biological target: HDAC1 (Homo sapiens (Human), UniProt Q13547); assay: Histone deacetylase assay (BPS Biosciences), HDAC1; conditions: human recombinant enzyme
Protocol: Histone deacetylase assay was done as per manufacturer's instructions. Briefly, assay buffer, 200 uM HDAC substrate (fluorogenic HDAC acetylated peptide substrate for class I HDACs (HDACs 1, 2 and 3) and class 2b HDACs (HDACs 6 and 10) and 1% BSA are taken as a master mixture and aliquoted as 40 uL per well. Compounds (10×) were diluted in assay buffer and were added to respective wells of a black 96 well plate. For HDAC1 (1.4 ng/μL) and for HDAC6 (7 ng/μL) human recombinant enzyme was thawed on ice and 5 μL of respective enzyme was added per well. The plate was incubated at 37° C. for 1 hour. Developer solution was then added (50 μL per well) and incubated at room temperature for 10 minutes. Fluorescence was measured at an excitation wavelength of 350-380 nm and emission wavelength of 440-480 nm.

[2] = biological target: LSD1 (Homo sapiens (Human), UniProt O60341); assay: TR-FRET assay for LSD1 (Perkin Elmer)
Protocol: LSD1 enzyme was produced in house. Tranylcypromine (TCP), LSD1 inhibitor was procured from Selleckchem. LSD1 enzyme, TCP and Biotinylated peptide substrate were diluted in assay buffer just before use. 2× inhibitor (10 μL, diluted in assay buffer) or Assay Buffer, and 5 nM enzyme were added to a 96 well plate and incubated at room temperature for 30 min. […] Stop Solution containing 300 μM tranylcypromine in 1×LANCE Detection Buffer was added to the wells and incubated for 5 min at RT. Then, Detection mixture containing 2 nM Eu-Ab and 50 nM ULight-Streptavidin in 1×LANCE Detection Buffer was prepared and added to the reaction mixture. This mixture was incubated for 1 hour at room temperature.

[3] = biological target: HDAC6 (Homo sapiens (Human), UniProt Q9UBN7); assay: Histone deacetylase assay (BPS Biosciences), HDAC6; conditions: human recombinant enzyme
HDAC6, sequence (Q9UBN7 whole entry): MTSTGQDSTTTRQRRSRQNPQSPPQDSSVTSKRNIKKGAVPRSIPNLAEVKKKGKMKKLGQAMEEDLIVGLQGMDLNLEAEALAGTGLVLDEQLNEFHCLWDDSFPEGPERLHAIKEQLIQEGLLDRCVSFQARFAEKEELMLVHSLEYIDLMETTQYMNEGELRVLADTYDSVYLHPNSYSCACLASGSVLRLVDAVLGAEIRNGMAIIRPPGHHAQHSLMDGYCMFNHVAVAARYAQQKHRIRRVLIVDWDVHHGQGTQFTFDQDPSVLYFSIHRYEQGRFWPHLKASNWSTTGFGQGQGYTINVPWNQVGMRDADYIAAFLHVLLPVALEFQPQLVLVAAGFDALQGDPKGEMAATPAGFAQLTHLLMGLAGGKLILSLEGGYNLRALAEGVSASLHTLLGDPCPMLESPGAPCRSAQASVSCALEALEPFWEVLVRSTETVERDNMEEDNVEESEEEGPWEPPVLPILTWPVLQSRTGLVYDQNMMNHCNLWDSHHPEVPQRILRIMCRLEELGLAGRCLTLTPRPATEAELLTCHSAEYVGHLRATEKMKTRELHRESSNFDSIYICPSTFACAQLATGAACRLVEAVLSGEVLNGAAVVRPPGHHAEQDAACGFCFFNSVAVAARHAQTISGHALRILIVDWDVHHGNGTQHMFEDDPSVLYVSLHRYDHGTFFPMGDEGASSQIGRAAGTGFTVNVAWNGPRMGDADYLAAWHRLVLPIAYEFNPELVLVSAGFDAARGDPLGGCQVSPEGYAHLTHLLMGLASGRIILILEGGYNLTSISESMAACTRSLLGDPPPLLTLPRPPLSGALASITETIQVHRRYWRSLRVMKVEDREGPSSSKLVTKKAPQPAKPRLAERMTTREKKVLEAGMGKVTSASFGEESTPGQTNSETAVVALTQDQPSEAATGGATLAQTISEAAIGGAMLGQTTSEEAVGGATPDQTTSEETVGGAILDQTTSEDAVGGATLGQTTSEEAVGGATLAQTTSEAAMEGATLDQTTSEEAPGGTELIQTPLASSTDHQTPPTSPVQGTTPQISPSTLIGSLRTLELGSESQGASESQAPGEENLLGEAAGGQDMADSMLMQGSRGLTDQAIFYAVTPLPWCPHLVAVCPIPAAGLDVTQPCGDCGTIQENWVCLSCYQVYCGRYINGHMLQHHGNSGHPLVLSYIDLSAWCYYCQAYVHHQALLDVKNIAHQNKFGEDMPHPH
Protocol: Histone deacetylase assay was done as per manufacturer's instructions. […] Fluorescence was measured at an excitation wavelength of 350-380 nm and emission wavelength of 440-480 nm.

HDAC1, sequence (Q13547 whole entry): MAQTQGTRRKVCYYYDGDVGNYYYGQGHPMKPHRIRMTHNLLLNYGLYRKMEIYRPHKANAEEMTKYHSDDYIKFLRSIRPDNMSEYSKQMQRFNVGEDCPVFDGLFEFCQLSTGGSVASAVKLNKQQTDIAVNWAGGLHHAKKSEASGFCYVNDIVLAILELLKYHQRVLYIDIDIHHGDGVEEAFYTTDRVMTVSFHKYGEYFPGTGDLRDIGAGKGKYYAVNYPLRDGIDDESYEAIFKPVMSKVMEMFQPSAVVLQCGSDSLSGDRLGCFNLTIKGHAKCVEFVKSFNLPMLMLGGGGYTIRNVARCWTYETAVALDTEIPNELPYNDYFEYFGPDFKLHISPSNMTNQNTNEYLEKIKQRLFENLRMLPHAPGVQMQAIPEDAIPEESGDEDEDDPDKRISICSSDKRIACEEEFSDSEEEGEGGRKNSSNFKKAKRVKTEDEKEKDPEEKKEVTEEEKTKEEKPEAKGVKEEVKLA

| SMILES | IC50 [1] [nM] | IC50 [2] [nM] | IC50 [3] [nM] |
| --- | --- | --- | --- |
| CC(C)n1cc([C@@H]2C[C@H]2NCC2CCN(CCCc3ccc(C(=O)Nc4ccccc4N)cc3)CC2)cn1 [Compound 17, N-(2-aminophenyl)-4-(3-(4-((((1R,2S)-2-(1-isopropyl-1H-pyrazol-4-yl)cyclopropyl)amino)methyl)piperidin-1-yl)propyl)benzamide] | 1040 | 101 |  |
| O=C(NO)c1ccc(/C=C/C(=O)N2CC(CN[C@@H]3C[C@H]3c3ccc(F)cc3)C2)cc1 [Compound 5, 4-((E)-3-(3-((((1R,2S)-2-(4-fluorophenyl)cyclopropyl)amino)methyl)azetidin-1-yl)-3-oxoprop-1-en-1-yl)-N-hydroxybenzamide] |  | 31 | 84 |
| Cn1cc(-c2ccc([C@H]3C[C@@H]3NCC3CCN(Cc4ccc(C(=O)Nc5ccccc5N)cc4)CC3)cc2)ccc1=O [Compound 20, N-(2-aminophenyl)-4-((4-((((1S,2R)-2-(4-(1-methyl-6-oxo-1,6-dihydropvridin-3-yl)phenyl)cyclopropyl)amino)methyl)piperidin-1-yl)methyl)benzamide] |  | 20 |  |
| O=C(NO)c1ccc(CCCN2CCC(CN[C@@H]3C[C@H]3c3cnn(-c4ccccc4)c3)CC2)cc1 [Compound 3, N-hydroxy-4-(3-(4-((((1R,2S)-2-(1-phenyl-1H-pyrazol-4-yl)cyclopropyl)amino)methyl)piperidin-1-yl)propyl)benzamide] |  | 9 | 88 |
| O=C(NO)c1ccc(CCCN2CCC(CN[C@@H]3C[C@H]3c3ccc(-c4cncnc4)cc3)CC2)cc1 [Compound 7, N-hydroxy-4-(3-(4-((((1R,2S)-2-(4-(pyrimidin-5-yl)phenyl)cyclopropyl)amino)methyl)piperidin-1-yl)propyl)benzamide] | 4530 | 6 | 151 |
| O=C(NO)c1ccc(CCCN2CCC(CN[C@H]3C[C@@H]3c3cnn(-c4ccccc4)c3)CC2)cc1 [Compound 4, N-hydroxy-4-(3-(4-((((1S,2R)-2-(1-phenyl-1H-pyrazol-4-yl)cyclopropyl)amino)methyl)piperidin-1-yl)propyl)benzamide] |  | 5 | 72 |
| Nc1ccccc1NC(=O)c1ccc(CCCN2CCC(CN[C@H]3C[C@@H]3c3ccc(F)cc3)CC2)cc1 [Compound 16, N-(2-aminophenyl)-4-(3-(4-((((1S,2R)-2-(4-fluorophenyl)cyclopropyl)amino)methyl)piperidin-1-yl)propyl)benzamide] | 295 |  |  |
| Cn1cc(-c2ccc([C@@H]3C[C@H]3NCC3CCN(Cc4ccc(C(=O)Nc5ccccc5N)cc4)CC3)cc2)ccc1=O [Compound 19, N-(2-aminophenyl)-4-((4-((((1R,2S)-2-(4-(1-methyl-6-oxo-1,6-dihydropyridin-3-yl)phenyl)cyclopropyl)amino)methyl)piperidin-1-yl)methyl)benzamide] |  | 6 |  |
| Nc1ccccc1NC(=O)c1ccc(CCCN2CCC(CN[C@@H]3C[C@H]3c3ccc(F)cc3)CC2)cc1 [Compound 15, N-(2-aminophenyl)-4-(3-(4-((((1R,2S)-2-(4-fluorophenyl)cyclopropyl)amino)methyl)piperidin-1-yl)propyl)benzamide] | 7720 |  |  |
| CN1C(=O)C(C)(C)c2cc([C@@H]3C[C@H]3NCC3CCN(CCCc4ccc(C(=O)NO)cc4)CC3)ccc21 [Compound 9, N-hydroxy-4-(3-(4-((((1R,2S)-2-(1,3,3-trimethyl-2-oxoindolin-5-yl)cyclopropyl)amino)methyl)piperidin-1-yl)propyl)benzamide] |  | 403 | 192 |
| CN1C(=O)C(C)(C)c2cc([C@H]3C[C@@H]3NCC3CCN(CCCc4ccc(C(=O)NO)cc4)CC3)ccc21 [Compound 10, N-hydroxy-4-(3-(4-((((1S,2R)-2-(1,3,3-trimethyl-2-oxoindolin-5-yl)cyclopropyl)amino)methyl)piperidin-1-yl)propyl)benzamide] |  | 1210 | 135 |
| Nc1ccccc1NC(=O)c1ccc(CCCN2CCC(CN[C@H]3C[C@@H]3c3ccc(F)c(F)c3)CC2)cc1 [Compound 26, N-(2-aminophenyl)-4-(3-(4-((((1S,2R)-2-(3,4-difluorophenyl)cyclopropyl)amino)methyl)piperidin-1-yl)propyl)benzamide] |  |  | > 10000 |
| O=C(NO)c1ccc(CCCN2CCC(CN[C@H]3C[C@@H]3c3ccc(-c4cncnc4)cc3)CC2)cc1 [Compound 8, N-hydroxy-4-(3-(4-((((1S,2R)-2-(4-(pyrimidin-5-yl)phenyl)cyclopropyl)amino)methyl)piperidin-1-yl)propyl)benzamide] | 2470 | 8 | 159 |
| CC(C)n1cc([C@H]2C[C@@H]2NCC2CCN(CCCc3ccc(C(=O)Nc4ccccc4N)cc3)CC2)cn1 [Compound 18, N-(2-aminophenyl)-4-(3-(4-((((1S,2R)-2-(1-isopropyl-1H-pyrazol-4-yl)cyclopropyl)amino)methyl)piperidin-1-yl)propyl)benzamide] | 2890 | 139 |  |
| Cc1noc(C)c1-c1ccc([C@H]2C[C@@H]2NCC2CCN(Cc3ccc(C(=O)Nc4ccccc4N)cc3)CC2)cc1 [Compound 28, N-(2-aminophenyl)-4-((4-((((1S,2R)-2-(4-(3,5-dimethylisoxazol-4-yl)phenyl)cyclopropyl)amino)methyl)piperidin-1-yl)methyl)benzamide] |  | 29 |  |
| O=C(NO)c1ccc(/C=C/C(=O)N2CC(CN[C@H]3C[C@@H]3c3ccc(F)cc3)C2)cc1 [Compound 6, 4-((E)-3-(3-((((1S,2R)-2-(4-fluorophenyl)cyclopropyl)amino)methyl)azetidin-1-yl)-3-oxoprop-1-en-1-yl)-N-hydroxybenzamide] |  | 147 | 144 |
| Cc1noc(C)c1-c1ccc([C@@H]2C[C@H]2NCC2CCN(Cc3ccc(C(=O)Nc4ccccc4N)cc3)CC2)cc1 [Compound 27, N-(2-aminophenyl)-4-((4-((((1R,2S)-2-(4-(3,5-dimethylisoxazol-4-yl)phenyl)cyclopropyl)amino)methyl)piperidin-1-yl)methyl)benzamide] |  | 6 |  |

More lines, now with the values ahead:

| IC50 [1] [nM] | IC50 [2] [nM] | IC50 [3] [nM] | SMILES |
| --- | --- | --- | --- |
|  | 671 |  | Nc1ccccc1NC(=O)c1ccc(Cn2cc(CN[C@@H]3C[C@H]3c3ccccc3)nn2)cc1 [Compound 29, N-(2-aminophenyl)-4-((4-((((1R,2S)-2-phenylcyclopropyl)amino)methyl)-1H-1,2,3-triazol-1-yl)methyl)benzamide] |
|  | 854 |  | Nc1ccccc1NC(=O)c1ccc(Cn2cc(CN[C@H]3C[C@@H]3c3ccc(F)cc3)nn2)cc1 [Compound 22, N-(2-aminophenyl)-4-((4-((((1S,2R)-2-(4-fluorophenyl)cyclopropyl)amino)methyl)-1H-1,2,3-triazol-1-yl)methyl)benzamide] |
|  | 69 |  | Nc1ccccc1NC(=O)c1ccc(Cn2cc(CN[C@@H]3C[C@H]3c3ccc(F)cc3)nn2)cc1 [Compound 21, N-(2-aminophenyl)-4-((4-((((1R,2S)-2-(4-fluorophenyl)cyclopropyl)amino)methyl)-1H-1,2,3-triazol-1-yl)methyl)benzamide] |
| 262 | 10 |  | Nc1ccccc1NC(=O)c1ccc(CCCN2CCC(CN[C@@H]3C[C@H]3c3cnn(-c4ccccc4)c3)CC2)cc1 [Compound 23, N-(2-aminophenyl)-4-(3-(4-((((1R,2S)-2-(1-phenyl-1H-pyrazol-4-yl)cyclopropyl)amino)methyl)piperidin-1-yl)propyl)benzamide] |
| 1550 |  |  | O=C(NO)c1ccc(Cn2cc(CN[C@H]3C[C@@H]3c3ccccc3)cn2)cc1 [Compound 2, N-hydroxy-4-((4-((((1S,2R)-2-phenylcyclopropyl)amino)methyl)-1H-pyrazol-1-yl)methyl)benzamide] |
| 923 |  |  | O=C(NO)c1ccc(Cn2cc(CN[C@@H]3C[C@H]3c3ccccc3)cn2)cc1 [Compound 1, N-hydroxy-4-((4-((((1R,2S)-2-phenylcyclopropyl)amino)methyl)-1H-pyrazol-1-yl)methyl)benzamide hydrobromide] |
| 181 | 27 | > 10000 | Nc1ccccc1NC(=O)c1ccc(Cn2cc(CN[C@@H]3C[C@H]3c3ccccc3)cn2)cc1 [Compound 30, N-(2-aminophenyl)-4-((4-((((1R,2S)-2-phenylcyclopropyl)amino)methyl)-1H-pyrazol-1-yl)methyl)benzamide] |
| 8600 | 6 |  | Nc1ccccc1NC(=O)c1ccc(CCCN2CCC(CN[C@H]3C[C@@H]3c3cnn(-c4ccccc4)c3)CC2)cc1 [Compound 24, N-(2-aminophenyl)-4-(3-(4-((((1S,2R)-2-(1-phenyl-1H-pyrazol-4-yl)cyclopropyl)amino)methyl)piperidin-1-yl)propyl)benzamide] |

Reference: patent US20250162994A1, “DUAL LSD1/HDAC INHIBITORS” (JUBILANT EPICORE LLC, priority 2022, published 2025)
